As a reminder, the IC50 is the concentration that gives 50% inhibition. By chromatographic logD is commonly meant a lipophilicity value derived from retention on a column. For orientation: half-life means the time needed for the level to fall by half in the phase considered. A lower half-life goes with rapid decline. As a reminder, the kinetic solubility is solubility judged after dilution from a stock solution rather than from solid. A word on the Papp A→B: it is how fast a substance crosses the layer from the apical side. In general, Papp B→A refers to how fast a substance crosses the layer from the basolateral side.

Converted amounts (≈) assume the structure as drawn. “And” between values parts separate entries of the source, which are not always exact repeats. Equal values may be shown once.

A short description of series [1]: (§1) DNDI: Cytotoxicity against L929 mouse fibroblasts, CYTO-SP, 24 hour. It counts as toxicity, cell-based. The settings on record: mouse, L929 mouse fibroblasts.
In a further series the test system is L929. The series is described as §1. Type of series: toxicity, cell-based. The conditions noted are these: l929.
The nature of series [2]: DNDI: Cytotoxicity against L929 mouse fibroblasts, 72 hour. It counts as toxicity, cell-based. The settings on record: mouse, L929 mouse fibroblasts.
The test system of series [3] is Trypanosoma brucei. Kind of series: DNDI: Inhibition of Human African Trypanosomiasis, Cross 22, in vitro. It counts as functional, organism-based.
Series [4] deals with Trypanosoma brucei. Kind of series: DNDI: Inhibition of Human African Trypanosomiasis, EATRO 110, in vitro. Type of series: functional, organism-based.
Series [5] deals with Trypanosoma brucei. As to the kind of experiment: DNDI: Inhibition of Human African Trypanosomiasis, SBRI 427, in vitro. It counts as functional, organism-based.
Series [6] is described as follows: DNDI: Lipophilicity measured in Chromatographic hydrophobicity index (CHI) assay, pH 7.4. It counts as physicochemical. The settings on record: buffer.
Series [7] in a line: DNDI: half life in human liver microsomes at a concentration of 10uM. It counts as ADME, Microsome. For orientation: Liver microsomes are vesicles of endoplasmic reticulum, rich in cytochrome P450 enzymes.
Series [8] in a line: DNDI: in vitro intrinsic clearance in human liver microsomes at a concentration of 10uM. Type of series: ADME, Microsome.
Series [9] in a line: DNDI: in vitro intrinsic clearance in mouse liver microsomes at a concentration of 10uM. Type of series: ADME, Microsome. The settings on record: read-out: CLint in vitro.
A short description of series [10]: DNDI: half life in mouse liver microsomes at a concentration of 10uM. Type of series: ADME, Microsome.
Series [11] in a line: DNDI: Solubility in phosphate buffered saline at pH7.4 measured by optical density (turbidimetry) at room temperature (OD-RT). Type of series: physicochemical. The conditions noted are these: pH 7.4.
The conditions of series [12]: mouse, microsomes, 1 µM.
Description: DNDI: in vitro intrinsic clearance in mouse liver microsomes at a concentration of 1uM
Another series in a line: in vitro. The settings on record: mouse, liver microsomes, t (1 / 2).
Series [13] concerns the target T1, MDR1 (ABCB1) (Homo sapiens, UniProt P08183). As to the kind of experiment: DNDI: % of compound recovered from apical to basolateral permeability assay in MDCK cells transfected with human MDR1. The conditions noted are these: dog. Type of series: ADME, cell-based, Canis lupus familiaris.
For series [14], the target named is T1, MDR1 (ABCB1). Kind of series: DNDI: Apparent permeability from apical to basolateral side of the MDCK cell transfected with human MDR1. It counts as ADME, cell-based, Canis lupus familiaris. The settings on record: dog.
The target in series [15] is T1, MDR1 (ABCB1). Kind of series: DNDI: Apparent permeability from basolateral to apical side of the MDCK cell transfected with human MDR1 after 60 mins at a concentration of 3uM. It counts as ADME, cell-based, Canis lupus familiaris. The conditions noted are these: dog.
Series [16] has as its target T1, MDR1 (ABCB1). As to the kind of experiment: DNDI: % of compound recovered from basolateral to apical permeability assay in MDCK cells transfected with human MDR1. It counts as ADME, cell-based, Canis lupus familiaris. The conditions noted are these: dog.
Series [17] addresses T1, MDR1 (ABCB1). Kind of series: DNDI: Efflux ratio for permeability from basolateral to apical side to apical to basolateral side of MDCK cells transfected with human MDR1. Type of series: ADME, cell-based, Canis lupus familiaris. The settings on record: dog, read-out: B-A/A-B.
Series [18] is described as follows: DNDI: half-life in mouse S9 microsomes at a concentration of 1uM. It counts as ADME, subcellular, Liver, S9 fraction.
Series [19] can be described thus: DNDI: half-life in mouse S9 microsomes at a concentration of 10uM. It counts as ADME, subcellular, Liver, S9 fraction.
A short description of series [20]: DNDI: Solubility in phosphate buffered saline at pH7.4 measured by nephelometry at room temperature (NEPH-RT). It counts as physicochemical. The settings on record: pH 7.4.
Where [21] appears, read: Trypanosoma brucei, SBRI 427, read-out: IC50.

T1 sequence (P08183 whole entry): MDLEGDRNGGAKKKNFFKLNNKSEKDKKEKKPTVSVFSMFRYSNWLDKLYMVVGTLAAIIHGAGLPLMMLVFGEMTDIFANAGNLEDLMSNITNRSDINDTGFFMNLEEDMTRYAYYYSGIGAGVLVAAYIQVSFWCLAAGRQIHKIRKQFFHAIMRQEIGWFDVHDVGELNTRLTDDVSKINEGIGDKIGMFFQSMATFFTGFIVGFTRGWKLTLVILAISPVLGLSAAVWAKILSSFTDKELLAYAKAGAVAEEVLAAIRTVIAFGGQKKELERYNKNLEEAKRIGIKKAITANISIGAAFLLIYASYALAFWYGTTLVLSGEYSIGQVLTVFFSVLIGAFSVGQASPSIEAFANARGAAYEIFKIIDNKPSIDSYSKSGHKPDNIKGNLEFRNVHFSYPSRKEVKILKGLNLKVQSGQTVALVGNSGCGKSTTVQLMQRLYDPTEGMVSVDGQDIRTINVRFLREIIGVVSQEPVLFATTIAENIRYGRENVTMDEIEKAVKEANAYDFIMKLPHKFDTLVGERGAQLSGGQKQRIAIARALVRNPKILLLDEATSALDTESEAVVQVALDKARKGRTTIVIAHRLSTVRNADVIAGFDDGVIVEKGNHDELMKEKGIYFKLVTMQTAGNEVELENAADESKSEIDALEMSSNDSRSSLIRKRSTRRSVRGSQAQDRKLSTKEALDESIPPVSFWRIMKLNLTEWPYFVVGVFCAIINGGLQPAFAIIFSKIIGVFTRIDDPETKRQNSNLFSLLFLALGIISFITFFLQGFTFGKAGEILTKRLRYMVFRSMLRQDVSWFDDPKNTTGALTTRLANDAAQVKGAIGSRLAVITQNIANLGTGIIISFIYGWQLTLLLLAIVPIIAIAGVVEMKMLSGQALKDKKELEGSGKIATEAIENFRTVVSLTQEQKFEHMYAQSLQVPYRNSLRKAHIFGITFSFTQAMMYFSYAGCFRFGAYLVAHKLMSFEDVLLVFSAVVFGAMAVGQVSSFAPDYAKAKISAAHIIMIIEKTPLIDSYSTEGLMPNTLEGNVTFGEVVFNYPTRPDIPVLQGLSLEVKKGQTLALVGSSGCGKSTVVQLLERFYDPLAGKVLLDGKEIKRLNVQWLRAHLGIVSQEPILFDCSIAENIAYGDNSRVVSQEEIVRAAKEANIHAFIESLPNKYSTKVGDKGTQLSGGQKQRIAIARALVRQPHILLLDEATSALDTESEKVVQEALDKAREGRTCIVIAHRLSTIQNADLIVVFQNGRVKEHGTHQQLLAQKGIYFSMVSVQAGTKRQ
Description for in vitro: DNDI: half life in mouse liver microsomes at a concentration of 1uM

In turn, `CCOc1ccc(-c2nc(CNC3C[C@@H]4C[C@H]([C@H]3C)C4(C)C)co2)cc1` (stereo not given in full) came in with an IC50 at 24 h in series [1] above 50 µg/mL. In addition, the half-inhibitory concentration (IC50) is 28.6 µg/mL (≈ 80.7 µM) in the series on L929, 1.72 µg/mL (≈ 4.85 µM) with Trypanosoma brucei [3], 1.16 µg/mL (≈ 3.27 µM) in the series with Trypanosoma brucei [4] and 1.07 ug/ml [middle of 5 runs] in the series on Trypanosoma brucei [5]. This compound registered an IC50 at 72 h in series [2] of 3.51 µg/mL (≈ 9.9 µM). In [6], this compound had a chromatographic logD of 5.22. The half-life at 10 µM in [7] was 2.9 h; in series [10], 0.4 h. Moreover, the CLint in vitro in series [8] is 17 µL/min/mg; in series [12], 207 µL/min/mg. For the same compound, the microsomal CLint at 10 µM in series [9] worked out at 121 µL/min/mg. In addition, the solubility (kinetic) in series [11] is 6.3 µM (≈ 2.23 µg/mL). The compound further had a half-life at 1 µM in “in vitro” of 0.0667 h.
As to `CCCCCC(C)NCc1coc(-c2ccccc2OCC)n1` (stereo not given), the IC50 at 24 h in [1] was 27 µg/mL (≈ 85.3 µM). The compound further yielded an IC50 in the series on L929 of 38.6 µg/mL (≈ 122 µM). Also, half-maximal inhibition in [2] (IC50 at 72 h) was put at 7.79 µg/mL (≈ 24.6 µM).
Take `CCOc1ccc(-c2nc(CNC[C@@H]3CC[C@H]4C[C@@H]3C4(C)C)co2)cc1`: in series [1], the half-maximal inhibitory concentration (IC50) at 24 h stood at 45.2 µg/mL (≈ 128 µM). It took 3.26 µg/mL (≈ 9.2 µM) to reach half-maximal inhibition in series [2] (IC50 at 72 h). The half-inhibitory concentration (IC50) in the series on Trypanosoma brucei [3] is 1.57 µg/mL (≈ 4.43 µM); in the series on Trypanosoma brucei [4], 0.71 µg/mL (≈ 2 µM); in the series on Trypanosoma brucei [5], 1.47 µg/mL and 1.38 µg/mL; with Trypanosoma brucei [5] (setting [21]), 1.18 µg/mL (≈ 3.33 µM). In series [6], this compound yielded a chromatographic logD of 5.5. The microsomal CLint at 10 µM in [9] was found to be 35 µL/min/mg. In addition, the half-life at 10 µM in series [10] is 1.35 h. Besides, the recovery at MDR1 (ABCB1) [13] was 21%; at MDR1 (ABCB1) [16] it was 42%. For the same compound, the Papp A→B at MDR1 (ABCB1) [14] amounted to 8.16 ×10⁻⁶ cm/s. Also, the Papp B→A at 1 h, 3 µM on MDR1 (ABCB1) [15] was 6.74 ×10⁻⁶ cm/s. Further, the efflux ratio at MDR1 (ABCB1) [17] stood at 0.8. Further, the solubility (kinetic) in series [11] turned out to be 0.8 µM (≈ 0.284 µg/mL). In series [12], this compound came in with a CLint in vitro of 86 µL/min/mg. Also, the half-life at 1 µM in “in vitro” is 0.167 h.
As to `Fc1ccc(-c2cc3nc(-c4ccccc4)cc(NC4CCNC4)n3n2)cc1` (stereo not given), in [2], the IC50 at 72 h is 1.39 µg/mL (≈ 3.72 µM). Besides, the IC50 in the series on Trypanosoma brucei [5] (setting [21]) amounted to 0.583 µg/mL (≈ 1.56 µM). For the same compound, the half-life at 1 µM in [18] turned out to be 1.39 h. In series [19], this compound had a half-life at 10 µM of 2.82 h.
`Fc1ccc(-c2cc3nc(-c4ccccc4)cc(N4CCNCC4)n3n2)cc1` had an IC50 at 72 h in series [2] of 0.73 µg/mL (≈ 1.95 µM). Further, the concentration for half-maximal inhibition (IC50) in the series with Trypanosoma brucei [5] (setting [21]) worked out at 0.422 µg/mL (≈ 1.13 µM). The same compound gave a chromatographic logD in [6] of 4.98. In addition, the half-life at 1 µM in [18] was 1.28 h. The compound also showed a half-life at 10 µM in series [19] of 3.68 h. For the same compound, in series [20], the kinetic solubility was found to be 3 µM (≈ 1.12 µg/mL).
Turning to `Fc1ccc(-c2cc3nc(-c4ccccc4)cc(NC4CCNCC4)n3n2)cc1`, in [2], the half-inhibitory concentration (IC50) at 72 h worked out at 1.11 µg/mL (≈ 2.86 µM). Also, the IC50 in the series with Trypanosoma brucei [5] (setting [21]) was determined as 0.555 µg/mL (≈ 1.43 µM). In series [6], this compound returned a chromatographic logD of 4.2. Further, the half-life at 1 µM in series [18] was above 5.83 h. The compound also registered a half-life at 10 µM in series [19] above 5.83 h. In [20], the solubility (kinetic) turned out to be 13 µM (≈ 5.04 µg/mL).

(Values after ChEMBL document CHEMBL1857833, “Screening and optimization of specific chemical series against human African Trypanosomiasis (HAT)”.)
